Results from patent US9498483B2, “2,3,5-trisubstituted thiophene compounds and uses thereof” (priority 2010, dated 2016).

How the values were obtained:
[1] = tested on: HCV replicon I389luc-ubi-neo/NS3-3′/ET in ET (Huh-lucubineo-ET) cells; experiment: Replicon assay (Biological Example 2), luciferase readout; assay type: cell-based; details: Hepatitis C virus
Method in brief: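 EC50 values come from Hill fits of % inhibition of replicon-driven firefly luciferase, relative to no-compound wells. Compounds were serially diluted (10 points, 3-fold, 0.1 nM–50 μM final, 0.5% DMSO) onto ET replicon cells and read after 48 h.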

[2] = biological target: T1, HCV polymerase (Hepatitis C virus genotype 1b, UniProt Q9WMX2); experiment: Polymerase assay of Biological Example 1 (IC50 values of Table 3); assay type: biochemical; details: IC50 values of Table 3, polymerase assay of Biological Example 1; read-out: NS5B-enzyme3
T1 construct: (His)6 (C); made in house; host or cells: XL-1 cells (E. coli, by own knowledge)

[3] = ET cells, luciferase activity 48 hours after compound

Compound	IC50 ([1]; between 100 nM and 5.0 uM) [µM]	IC50 [2] [µM]	IC50 [1, 3] [µM]
O=C(O)c1sc(-c2ccccc2)cc1N1C(=O)CN(S(=O)(=O)c2ccc(-c3ccccc3)cc2)CC1C1CCCCC1 (centres unmarked) [Compound 60, 3-[4-(Biphenyl-4-sulfonyl)-2-cyclohexyl-6-oxo-piperazin-1-yl]-5-phenyl-thiophene-2-carboxylic acid]	0.1 to 5	0.009	
Cc1cc(S(=O)(=O)N2CC(=O)N(c3cc(-c4ccccc4)sc3C(=O)O)[C@H](C3CCCCC3)C2)cnc1N1CCC[C@H]1C [Compound 173, 3-{(R)-2-Cyclohexyl-4-[5-methyl-6-((R)-2-methyl-pyrrolidin-1-yl)-pyridine-3-sulfonyl]-6-oxo-piperazin-1-yl}-5-phenyl-thiophene-2-carboxylic acid]		0.001	≤ 0.1
CCN1CCN(c2ccc(S(=O)(=O)N3CC(=O)N(c4cc(-c5ccccc5)sc4C(=O)O)[C@H](C4CCCCC4)C3)cn2)CC1 [Compound 148, 3-{(R)-2-Cyclohexyl-4-[6-(4-ethyl-piperazin-1-yl)-pyridine-3-sulfonyl]-6-oxo-piperazin-1-yl}-5-phenyl-thiophene-2-carboxylic acid]		0.002	≤ 0.1
O=C(O)c1sc(-c2ccccc2)cc1N1C(=O)CN(S(=O)(=O)c2ccc(F)c(C(F)(F)F)c2)CC1C1CCCCC1 (centres unmarked) [Compound 66, 3-[2-Cyclohexyl-4-(4-fluoro-3-trifluoromethyl-benzenesulfonyl)-6-oxo-piperazin-1-yl]-5-phenyl-thiophene-2-carboxylic acid]	0.1 to 5	0.049	
O=C1CC(=O)N(c2cc(-c3ccccc3)sc2C(=O)O)C(C2CCCCC2)C1 (centres unmarked) [Compound 9, 3-(2-Cyclohexyl-4,6-dioxo-piperidin-1-yl)-5-phenyl-thiophene-2-carboxylic acid]		0.08	≥ 5
CCN(CC)c1ccc(S(=O)(=O)N2CC(=O)N(c3cc(-c4ccccc4)sc3C(=O)O)[C@H](C3CCCCC3)C2)cn1 [Compound 177, 3-[(R)-2-Cyclohexyl-4-(6-diethylamino-pyridine-3-sulfonyl)-6-oxo-piperazin-1-yl]-5-phenyl-thiophene-2-carboxylic acid]		0.002	≤ 0.1
NCCS(=O)(=O)N1CC(=O)N(c2cc(-c3ccccc3)sc2C(=O)O)C(C2CCCCC2)C1 (centres unmarked) [Compound 47, 3-[4-(2-Amino-ethanesulfonyl)-2-cyclohexyl-6-oxo-piperazin-1-yl]-5-phenyl-thiophene-2-carboxylic acid]	0.1 to 5	0.088	≥ 5
CC1(C)CCN(c2ccc(S(=O)(=O)N3CC(=O)N(c4cc(-c5ccc(Cl)cc5)sc4C(=O)O)[C@H](C4CCCCC4)C3)cn2)C1 [Compound 292, 5-(4-Chloro-phenyl)-3-{(R)-2-cyclohexyl-4-[6-(3,3-dimethyl-pyrrolidin-1-yl)-pyridine-3-sulfonyl]-6-oxo-piperazin-1-yl}-thiophene-2-carboxylic acid]		0.0023	≤ 0.1
C[C@@H]1CCCN1c1ccc(S(=O)(=O)N2CC(=O)N(c3cc(-c4ccccc4)sc3C(=O)O)[C@@H](C3CCCCC3)C2)cn1 [Compound 131, 3-{(S)-2-Cyclohexyl-4-[6-((R)-2-methyl-pyrrolidin-1-yl)-pyridine-3-sulfonyl]-6-oxo-piperazin-1-yl}-5-phenyl-thiophene-2-carboxylic acid]	0.1 to 5	0.261	
O=C(O)c1sc(-c2ccccc2)cc1N1C(=O)CN(S(=O)(=O)c2ccc(N3CCCC3)nc2)C[C@H]1C1CCCCC1 [Compound 135, 3-[(R)-2-Cyclohexyl-6-oxo-4-(6-pyrrolidin-1-yl-pyridine-3-sulfonyl)-piperazin-1-yl]-5-phenyl-thiophene-2-carboxylic acid]		0.00233	≤ 0.1
CC(C)(C)C#Cc1cc(N2C(=O)CCCC[C@H]2C2CCCCC2)c(C(=O)O)s1 [Compound 335, 3-((S)-2-Cyclohexyl-7-oxo-azepan-1-yl)-5-(3,3-dimethyl-but-1-ynyl)-thiophene-2-carboxylic acid]	0.1 to 5	0.024	
O=C(O)c1sc(-c2cccc(F)c2)cc1N1C(=O)CCCC1C1CCCCC1 (centres unmarked) [Compound 48, 3-(2-Cyclohexyl-6-oxo-piperidin-1-yl)-5-(3-fluoro-phenyl)-thiophene-2-carboxylic acid]	0.1 to 5	0.187	
N#Cc1ccccc1-c1ccc(S(=O)(=O)N2CC(=O)N(c3cc(-c4ccccc4)sc3C(=O)O)[C@H](C3CCCCC3)C2)cn1 [Compound 213, 3-{(R)-4-[6-(2-Cyano-phenyl)-pyridine-3-sulfonyl]-2-cyclohexyl-6-oxo-piperazin-1-yl}-5-phenyl-thiophene-2-carboxylic acid]		0.001	≤ 0.1
C[C@H]1CN(c2ccc(S(=O)(=O)N3CC(=O)N(c4cc(-c5ccccc5)sc4C(=O)O)[C@H](C4CCCCC4)C3)cn2)CCN1C(=O)OC(C)(C)C [Compound 162, (S)-4-{5-[(R)-4-(2-Carboxy-5-phenyl-thiophen-3-yl)-3-cyclohexyl-5-oxo-piperazine-1-sulfonyl]-pyridin-2-yl}-2-methyl-piperazine-1-carboxylic acid tert-butyl ester]		0.002	≤ 0.1
Cn1ccc(S(=O)(=O)N2CC(=O)N(c3cc(-c4ccccc4)sc3C(=O)O)C(C3CCCCC3)C2)n1 (centres unmarked) [Compound 62, 3-[2-Cyclohexyl-4-(1-methyl-1H-pyrazole-3-sulfonyl)-6-oxo-piperazin-1-yl]-5-phenyl-thiophene-2-carboxylic acid]	0.1 to 5	0.011	
COc1cccc(S(=O)(=O)N2CC(=O)N(c3cc(C#CC(C)(C)C)sc3C(=O)O)[C@H](C3CCCCC3)C2)c1 [Compound 257, 3-[(R)-2-Cyclohexyl-4-(3-methoxy-benzenesulfonyl)-6-oxo-piperazin-1-yl]-5-(3,3-dimethyl-but-1-ynyl)-thiophene-2-carboxylic acid]		0.002	≤ 0.1
CC(C)(C)OC(=O)NCC1CCN(c2ccc(S(=O)(=O)N3CC(=O)N(c4cc(-c5ccccc5)sc4C(=O)O)[C@H](C4CCCCC4)C3)cn2)CC1 [Compound 149, 3-{(R)-4-[4-(tert-Butoxycarbonyl-amino-methyl)-3,4,5,6-tetrahydro-2H-[1,2′]bipyridinyl-5′-sulfonyl]-2-cyclohexyl-6-oxo-piperazin-1-yl}-5-phenyl-thiophene-2-carboxylic acid]		0.003	≤ 0.1
CC(C)(C)C#Cc1cc(N2C(=O)[C@H](CCO)OC[C@H]2C2CCCCC2)c(C(=O)O)s1 [Compound 332, 3-[(2S,5R)-5-Cyclohexyl-2-(2-hydroxy-ethyl)-3-oxo-morpholin-4-yl]-5-(3,3-dimethyl-but-1-ynyl)-thiophene-2-carboxylic acid]		0.012	≤ 0.1
Cc1nc(C)c(S(=O)(=O)N2CC(=O)N(c3cc(C#CC(C)(C)C)sc3C(=O)O)[C@H](C3CCCCC3)C2)s1 [Compound 244, 3-[(R)-2-Cyclohexyl-4-(2,4-dimethyl-thiazole-5-sulfonyl)-6-oxo-piperazin-1-yl]-5-(3,3-dimethyl-but-1-ynyl)-thiophene-2-carboxylic acid]		0.002	≤ 0.1
O=C(O)c1sc(-c2ccccc2)cc1N1C(=O)CN(S(=O)(=O)c2cccnc2)CC1C1CCCCC1 (centres unmarked) [Compound 108, 3-[2-Cyclohexyl-6-oxo-4-(pyridine-3-sulfonyl)-piperazin-1-yl]-5-phenyl-thiophene-2-carboxylic acid]	0.1 to 5	0.037	
